Assay results: patent US20090326014A1, “Use of 5-ht7 receptor agonists for the treatment of pain” (Laboratorios Del Dr. Esteve, S.A., priority 2006, published 2009)

Legend:
h5-HT1A = target: T1, h5-HT1A (Homo sapiens, UniProt P08908); experiment: Radioligand binding assay, h5-HT1A; conditions: h5-HT1A; read-out: Affinity [ki (nM)]
T1 sequence (P08908 1-422): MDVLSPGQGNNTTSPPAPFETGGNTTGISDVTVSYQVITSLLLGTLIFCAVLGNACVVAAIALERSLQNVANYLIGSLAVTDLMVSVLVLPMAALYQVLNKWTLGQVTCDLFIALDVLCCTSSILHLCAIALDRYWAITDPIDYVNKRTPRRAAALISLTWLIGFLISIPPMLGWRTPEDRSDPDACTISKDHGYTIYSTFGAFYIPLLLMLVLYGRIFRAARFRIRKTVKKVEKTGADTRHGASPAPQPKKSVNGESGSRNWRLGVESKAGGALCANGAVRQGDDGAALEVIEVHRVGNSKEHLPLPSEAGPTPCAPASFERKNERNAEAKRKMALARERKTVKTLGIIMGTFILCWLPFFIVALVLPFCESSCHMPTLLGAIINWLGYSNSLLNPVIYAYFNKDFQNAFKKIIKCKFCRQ

h5-HT1B = h5-HT1B (Homo sapiens, UniProt P28222); experiment: Radioligand binding assay, h5-HT1B; conditions: read-out: Affinity [ki (nM)]
Sequence of h5-HT1B (P28222 whole entry): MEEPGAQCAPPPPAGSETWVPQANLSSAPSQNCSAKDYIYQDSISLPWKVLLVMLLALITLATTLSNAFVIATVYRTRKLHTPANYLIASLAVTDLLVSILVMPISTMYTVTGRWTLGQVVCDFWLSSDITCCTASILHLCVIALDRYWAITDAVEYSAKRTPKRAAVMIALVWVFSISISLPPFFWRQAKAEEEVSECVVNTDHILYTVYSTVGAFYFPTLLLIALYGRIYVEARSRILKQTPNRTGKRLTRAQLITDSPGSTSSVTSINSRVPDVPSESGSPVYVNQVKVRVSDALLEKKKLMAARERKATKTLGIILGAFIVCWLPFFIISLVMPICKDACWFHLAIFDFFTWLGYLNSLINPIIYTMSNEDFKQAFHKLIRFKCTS

h5-HT1D = h5-HT1D (Homo sapiens, UniProt P28221); experiment: Radioligand binding assay, h5-HT1D; conditions: read-out: Affinity [ki (nM)]
Sequence of h5-HT1D (P28221 whole entry): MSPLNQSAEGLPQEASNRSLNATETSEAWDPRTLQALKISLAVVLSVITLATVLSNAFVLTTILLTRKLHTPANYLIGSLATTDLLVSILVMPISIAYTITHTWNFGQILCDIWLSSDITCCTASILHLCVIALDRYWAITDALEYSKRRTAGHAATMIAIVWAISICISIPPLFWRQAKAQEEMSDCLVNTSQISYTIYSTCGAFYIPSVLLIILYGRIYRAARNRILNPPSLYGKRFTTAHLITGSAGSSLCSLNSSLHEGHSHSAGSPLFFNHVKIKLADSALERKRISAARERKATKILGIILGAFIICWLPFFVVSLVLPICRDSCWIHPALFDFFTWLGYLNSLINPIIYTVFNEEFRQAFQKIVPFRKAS

h5-HT1E = h5-HT1E (Homo sapiens, UniProt P28566); experiment: Radioligand binding assay, h5-HT1E; conditions: read-out: Affinity [ki (nM)]
Sequence of h5-HT1E (P28566 whole entry): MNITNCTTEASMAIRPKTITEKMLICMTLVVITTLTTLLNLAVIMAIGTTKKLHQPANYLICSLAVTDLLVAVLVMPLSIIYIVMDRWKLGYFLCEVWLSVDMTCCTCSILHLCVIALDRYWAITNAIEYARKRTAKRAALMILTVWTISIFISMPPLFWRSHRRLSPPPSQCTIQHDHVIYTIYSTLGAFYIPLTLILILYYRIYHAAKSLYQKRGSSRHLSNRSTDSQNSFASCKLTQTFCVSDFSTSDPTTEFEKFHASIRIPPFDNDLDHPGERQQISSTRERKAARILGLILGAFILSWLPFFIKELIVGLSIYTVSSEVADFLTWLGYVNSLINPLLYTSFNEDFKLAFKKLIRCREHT

h5-HT1F = target: T2, h5-HT1F (Homo sapiens, UniProt P30939); experiment: Radioligand binding assay, h5-HT1F; conditions: read-out: Affinity [ki (nM)]
T2 sequence (P30939 1-366): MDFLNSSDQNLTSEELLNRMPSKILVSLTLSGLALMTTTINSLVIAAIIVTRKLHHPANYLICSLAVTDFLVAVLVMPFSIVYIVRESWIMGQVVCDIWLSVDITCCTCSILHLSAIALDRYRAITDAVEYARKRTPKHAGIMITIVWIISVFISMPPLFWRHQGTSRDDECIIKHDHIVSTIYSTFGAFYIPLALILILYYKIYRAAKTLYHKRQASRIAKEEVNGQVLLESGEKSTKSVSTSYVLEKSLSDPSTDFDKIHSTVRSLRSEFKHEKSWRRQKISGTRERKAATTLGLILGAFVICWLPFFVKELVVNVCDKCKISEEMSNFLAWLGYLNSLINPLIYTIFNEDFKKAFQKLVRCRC

h5-HT2A = h5-HT2A (Homo sapiens, UniProt P28223); experiment: Radioligand binding assay, h5-HT2A; conditions: read-out: Affinity [ki (nM)]
Sequence of h5-HT2A (P28223 whole entry): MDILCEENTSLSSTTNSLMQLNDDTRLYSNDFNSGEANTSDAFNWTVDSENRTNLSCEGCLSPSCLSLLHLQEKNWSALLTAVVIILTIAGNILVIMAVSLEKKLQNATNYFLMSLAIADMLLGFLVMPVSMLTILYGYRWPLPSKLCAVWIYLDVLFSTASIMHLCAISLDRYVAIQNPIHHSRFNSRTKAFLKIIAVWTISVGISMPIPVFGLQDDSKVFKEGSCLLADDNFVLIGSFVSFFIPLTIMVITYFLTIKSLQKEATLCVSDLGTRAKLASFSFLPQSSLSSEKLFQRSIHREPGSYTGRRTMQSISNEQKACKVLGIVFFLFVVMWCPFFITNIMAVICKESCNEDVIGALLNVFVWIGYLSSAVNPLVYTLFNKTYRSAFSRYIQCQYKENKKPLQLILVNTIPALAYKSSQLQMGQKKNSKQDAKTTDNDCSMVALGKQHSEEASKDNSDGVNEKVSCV

h5-HT2B = h5-HT2B (Homo sapiens, UniProt P41595); experiment: Radioligand binding assay, h5-HT2B; conditions: h5-HT2B; read-out: Affinity [ki (nM)]
Sequence of h5-HT2B (P41595 whole entry): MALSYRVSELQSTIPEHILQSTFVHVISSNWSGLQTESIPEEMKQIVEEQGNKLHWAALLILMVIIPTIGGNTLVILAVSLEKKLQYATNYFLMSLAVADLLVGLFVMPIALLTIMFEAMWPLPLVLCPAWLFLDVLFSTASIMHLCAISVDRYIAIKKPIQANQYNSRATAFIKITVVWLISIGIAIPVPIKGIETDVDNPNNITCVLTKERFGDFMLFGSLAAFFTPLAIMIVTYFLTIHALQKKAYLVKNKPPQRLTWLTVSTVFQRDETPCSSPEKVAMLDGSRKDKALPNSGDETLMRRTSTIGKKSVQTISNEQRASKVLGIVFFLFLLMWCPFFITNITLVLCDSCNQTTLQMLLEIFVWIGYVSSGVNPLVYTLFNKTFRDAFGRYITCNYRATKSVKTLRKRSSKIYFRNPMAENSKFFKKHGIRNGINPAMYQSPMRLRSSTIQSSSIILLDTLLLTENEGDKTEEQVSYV

h5-HT2C = h5-HT2C (Homo sapiens, UniProt P28335); experiment: Radioligand binding assay, h5-HT2C; conditions: h5-HT2C; read-out: Affinity [ki (nM)]
Sequence of h5-HT2C (P28335 33-458): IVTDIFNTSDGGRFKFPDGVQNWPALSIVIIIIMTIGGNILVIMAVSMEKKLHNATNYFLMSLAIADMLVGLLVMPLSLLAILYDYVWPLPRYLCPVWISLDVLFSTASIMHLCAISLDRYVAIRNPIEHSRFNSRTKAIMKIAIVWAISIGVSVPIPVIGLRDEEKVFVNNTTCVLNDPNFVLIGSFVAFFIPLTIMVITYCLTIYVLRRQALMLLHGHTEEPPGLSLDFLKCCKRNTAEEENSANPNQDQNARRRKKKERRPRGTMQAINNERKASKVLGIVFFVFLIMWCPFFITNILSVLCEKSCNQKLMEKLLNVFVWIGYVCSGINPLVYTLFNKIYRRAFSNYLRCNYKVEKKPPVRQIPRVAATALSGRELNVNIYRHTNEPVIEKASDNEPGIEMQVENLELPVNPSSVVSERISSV

h5-HT6 = h5-HT6 (Homo sapiens, UniProt P50406); experiment: Radioligand binding assay, h5-HT6; conditions: h5-HT6; read-out: Affinity [ki (nM)]
Sequence of h5-HT6 (P50406 whole entry): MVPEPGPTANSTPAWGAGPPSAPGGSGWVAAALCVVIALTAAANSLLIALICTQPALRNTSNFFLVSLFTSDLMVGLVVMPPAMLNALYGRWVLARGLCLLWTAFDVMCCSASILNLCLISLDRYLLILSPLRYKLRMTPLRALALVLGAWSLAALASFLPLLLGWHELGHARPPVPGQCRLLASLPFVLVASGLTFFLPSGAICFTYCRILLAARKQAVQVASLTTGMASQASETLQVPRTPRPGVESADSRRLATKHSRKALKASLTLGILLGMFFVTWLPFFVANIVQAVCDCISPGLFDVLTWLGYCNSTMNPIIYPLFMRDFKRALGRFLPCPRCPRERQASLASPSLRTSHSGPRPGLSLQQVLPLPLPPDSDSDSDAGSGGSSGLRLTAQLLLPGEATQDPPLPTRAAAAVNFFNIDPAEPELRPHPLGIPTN

[1] = test system: capsaicin-induced mechanical allodynia; experiment: Capsaicin test, proallodynic protocol (4 ng capsaicin, 0.25 g von Frey filament); assay type: in vivo, mice; conditions: 0.25 g pressure
Experimental: Alternatively, in some experiments, only 4 ng (instead of 1 μg) of capsaicin were injected into the paw and the pressure exerted by the filament was reduced to 0.25 g (instead of 1 g). […] This approach was used to test the possibility that treatments could exert a proallodynic effect. The FIG. 1 summarizes the two different experimental approaches carried out in this study.

[2] = test system: mechanical allodynia induced by partial sciatic nerve ligation; experiment: Partial sciatic nerve ligation, von Frey test (mechanical allodynia); assay type: in vivo, mice
Excerpt: Mechanical allodynia was quantified by measuring the tactile threshold for hind paw withdrawal following von Frey filament stimulation. […] The filament exerted an increasing upward pressure on the plantar surface. The pressure increased linearly with time (0.1 g/s; from 0 to 5 g in 50 s) until the mouse withdrew its paw. […] A cut-off threshold of 5 g (50 s) was imposed.
The filament of 0.4 g was first used. […] This up-down procedure was stopped four measures after the first change in animal responding and the threshold of response was calculated. Clear paw withdrawal, shaking was considered as a nociceptive-like response.

h5-HT7 = h5-HT7 (Homo sapiens, UniProt P34969); conditions: read-out: Affinity [ki (nM)]
Sequence of h5-HT7 (P34969 whole entry): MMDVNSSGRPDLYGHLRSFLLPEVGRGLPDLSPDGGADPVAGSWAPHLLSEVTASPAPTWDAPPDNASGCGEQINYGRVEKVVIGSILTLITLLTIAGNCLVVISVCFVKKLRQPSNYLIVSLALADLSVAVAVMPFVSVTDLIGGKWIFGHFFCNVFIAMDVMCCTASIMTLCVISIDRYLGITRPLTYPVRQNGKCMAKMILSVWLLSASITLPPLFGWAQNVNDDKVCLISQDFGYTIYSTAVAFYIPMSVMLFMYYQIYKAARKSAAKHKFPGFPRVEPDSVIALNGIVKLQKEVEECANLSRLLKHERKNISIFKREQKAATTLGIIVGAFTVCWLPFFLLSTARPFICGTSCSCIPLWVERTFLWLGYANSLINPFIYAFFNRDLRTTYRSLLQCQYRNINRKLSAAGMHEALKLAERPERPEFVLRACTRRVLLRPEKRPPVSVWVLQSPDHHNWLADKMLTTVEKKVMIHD

5-HT7 receptors = 5-HT7 receptors (Homo sapiens, UniProt P34969); conditions: Mahe et al., 2004; Romero et al., 2006; cited from earlier work
Sequence of 5-HT7 receptors (P34969 whole entry): as above

[3] = test system: thermal hyperalgesia induced by partial sciatic nerve ligation; experiment: Partial sciatic nerve ligation, plantar test (thermal hyperalgesia)
Experimental: Animals were housed in groups of five, provided with food and water ad libitum and kept in controlled laboratory conditions with the temperature maintained at 21±1° C. and light in 12 h cycles (on at 07:00 h and off at 19:00 h). Experiments were carried out in a soundproof and air-regulated experimental room.
The rest of compounds were prepared as aqueous solutions. Doses were calculated based on the molecular weight of the free base. All the compounds and vehicles (1% DMSO or physiological saline) were administered in a volume of 5 ml/kg through the subcutaneous (s.c.) route. When two compounds were co-administered, they were injected s.c. in opposite flanks of the mice.
This model consists of partial injury to the sciatic nerve at mid-thigh level. All surgical procedures for nerve injury were performed under isoflurane (IsoFlo®, Abbott-Laboratorios Dr. Esteve, S. A., Barcelona, Spain) anesthesia (induction: 3%; surgery: 2%). Briefly, mice were anaesthetized and the common sciatic nerve was exposed at the level of the mid-thigh of the right hind paw. Partial nerve injury was produced at about 1 cm proximal to the nerve trifurcation by tying a tight ligature around approximately 33 to 50% the diameter of the sciatic nerve using 9-0 non-absorbable virgin silk suture (Alcon surgical, Texas, USA). Ligature enclosed the outer ⅓-½ sciatic nerve whereas the rest of the nerve (inner ⅔-½) was leaved “uninjured”. The muscle was then stitched with 6-0 silk suture and the skin incision was closed with wound clips. Control, sham-operated mice underwent the same surgical procedure and the sciatic nerve was exposed, but not ligated. After surgery, animals were allowed to recover for 5 days prior to initiation of nociceptive behavioral tests (see experimental protocol below).
The effectiveness of acute treatments with 5-HT7 ligands compared to vehicle on the expression of neuropathic pain was investigated based on the following experimental protocol. […] After the habituation period, pre-injury baseline responses in each test were established during 2 consecutive days. One day after baseline measurements, nerve injury or sham operation was induced as previously described. Mice were then tested in either the von Frey or the plantar test on day 5 after the surgical procedure to monitor post-injury responses. Post-injury baseline responses of mice treated with vehicle were obtained on day 10 (basal pre-treatment). On days 11-13 mice received treatment with three different doses of 5-HT7 ligands following a Latin square design. Finally, on day 14 after surgery, baseline responses in vehicle-treated mice (basal post-treatment) were evaluated as an internal control to ensure that mechanical allodynia and thermal hyperalgesia were not influenced by previous treatments in the Latin square design.

[4] = test system: capsaicin-induced mechanical allodynia; experiment: Capsaicin test, antiallodynic protocol (1 μg capsaicin, 1 g von Frey filament); conditions: for effect on capsaicin-induced mechanical allodynia: 1 g filament
Experimental: Animals were housed in groups of five, provided with food and water ad libitum and kept in controlled laboratory conditions with the temperature maintained at 21±1° C. and light in 12 h cycles (on at 07:00 h and off at 19:00 h). Experiments were carried out in a soundproof and air-regulated experimental room. The number of mice per group in each individual experiment was 16.
Capsaicin (8-methyl-N-vanillyl 6-nonamide) was dissolved in 1% DMSO (vehicle). […] Doses were calculated based on the molecular weight of the free base. All the compounds and vehicles (1% DMSO or physiological saline) were administered in a volume of 5 ml/kg through the subcutaneous (s.c.) route. When two compounds were co-administered, they were injected s.c. in opposite flanks of the mice.
Subplantar capsaicin injection initially evokes a nocifensive behavior that is characterized by lifting and guarding the injected paw and typically lasts up to 5 min following injection. […] In this study, sensitization by subplantar capsaicin injection was used to assess the effect of several 5-HT7 ligands on mechanical allodynia.
Drug treatments with 5-HT7 ligands were done 30 min before capsaicin injection and withdrawal latencies to a mechanical stimulus were determined 15 min after capsaicin injection (FIG. 1).
Mechanical allodynia was quantified by measuring the hind paw withdrawal response latency to von Frey filament stimulation. Mice were placed into compartment enclosures in a test chamber with a framed metal mesh floor and allowed to acclimate to their environment for 120 min before testing. […] The mechanical stimulus was applied to the plantar surface of the right, capsaicin-injected hind paw from below the mesh floor by using an automated testing device (dynamic plantar aesthesiometer; Ugo Basile, Italy) that lifts a straight filament (0.5 mm diameter). The filament exerted a fixed upward pressure (1 g or 0.25 g) on the plantar surface. When the animal withdrew its hind paw, the mechanical stimulus automatically stopped and the latency time was recorded. Latency was defined as the time from the onset of exposure to the filament to the cessation of the pressure when the sensor detected the withdrawal of the paw. A cut-off latency of 60 sec was imposed. Paw withdrawal latencies were measured in triplicate for each animal.
This approach enabled us to evaluate the possible antiallodynic effect of 5-HT7 ligands.
Data are presented as mean paw withdrawal latency responses in sec±S.E.M. Capsaicin-injected hind paw withdrawal responses to mechanical stimulation of treated mice were compared with those of untreated (vehicle-treated) mice. Statistical analysis to test intergroup comparisons was made using an initial one-way analysis of variance followed by the Newman-Keuls multiple comparison test. The level of significance was set at p<0.05.

[5] = test system: sciatic nerve-ligatured rats; experiment: Chronic constriction injury of the sciatic nerve (CCI-SN), Randall-Sellito test; conditions: antagonist i.p., 5a-MSD s.c.; sciatic nerve-ligated rats
Experimental: All compounds were prepared as aqueous solutions. […] When two compounds were co-administered, one was injected s.c. and the other i.p.
Briefly, the right common sciatic nerve was exposed at mid-tight level by blunt dissection through the biceps femoris muscle. Proximal to the trifurcation, ≈10 mm of nerve was freed from adhering tissue and four loose ligatures (5.0 chromic catgut) were tied around the sciatic nerve (≈1 mm apart). […] In sham-operated control rats, an identical dissection was performed on the right side allowing the sciatic nerve to be freed from surrounding tissue, but not ligatured. Finally, muscle and skin were closed in layers with silk thread.
Mechanical nociceptive thresholds, expressed as grams (g), were measured using the Randall-Sellito test (Ugo Basile analgesimeter; Bioseb, Chaville, France). An increasing pressure was applied to the nerve-injured hindpaw of unrestrained rats until paw withdrawal (PW) and then a squeak (i.e. the vocalization threshold when the paw was held under pressure) were obtained. As PW is a spinally coordinated reflex whereas vocalization is a supra-spinal integrated response (Kayser and Christensen, 2000), this test allowed assessment of the respective contribution of spinal versus supra-spinal mechanisms.

For `Cc1cccc(S(=O)(=O)N(C)[C@H](C)CCN2CCC(C)CC2)c1` [SB-258719, (R)-3,N-Dimethyl-N-(1-methyl-3-(4-methylpiperidin-1-yl)propyl)benzene sulfonamide], the Ki (h5-HT1A) was > 1000 nM, the Ki (h5-HT1B) was > 1000 nM and the Ki (h5-HT1D) was > 1000 nM. For the same molecule, the Ki (h5-HT1E) was > 1000 nM, the Ki (h5-HT1F) was > 1000 nM and the Ki (h5-HT2A) was > 1000 nM. The Ki (h5-HT2B) was > 1000 nM, the Ki (h5-HT2C) was > 1000 nM and the Ki (h5-HT6) was > 1000 nM. For the same molecule, the “proallodynic effect (paw withdrawal latency)” value ([1]; 10 mg/Kg s.c.) was “allodynia was evidenced”, the “proallodynic effect, dose-response” value ([1]; s.c.) was “dose-dependently promoted allodynia” and the “effect alone on mechanical allodynia, nerve-injured mice” value ([2]; 5 mg/Kg s.c., day 11, single dose design) was “had no antiallodynic effect”. The “effect on mechanical threshold of the nerve-injured hind paw (proallodynic)” value ([2]; 10 mg/kg s.c., nerve-injured mice) was “significantly decreased the mechanical threshold”, the “effect on the antiallodynic effect of AS-19 and MSD-5a when co-administered” value ([2]; SB-258719 5 mg/Kg, AS-19 5 mg/kg, MSD-5a 10 mg/kg s.c., nerve-injured mice) was “able to reverse the antiallodynic effect” and the “induction of mechanical allodynia in sham-operated mice” value ([2]; sham-operated, 10 mg/kg s.c.) was “able to induce mechanical allodynia”. For the same molecule, the Ki (h5-HT7) was 31.6 nM, the “functionality at 5-HT7 receptor as described” value (5-HT7 receptors) was “pure antagonist” and the “effect on thermal hyperalgesia (paw withdrawal latency)” value ([3]; 0.1-10 mg/kg s.c.) was “did not exert any effects”. The “effect on the antihyperalgesic effect of AS-19 when co-administered” value ([3]; SB-258719 5 mg/Kg + AS-19 5 mg/kg s.c., nerve-injured mice) was “blocked significantely the antihyperalgesic effects”, the “effect on the antihyperalgesic effect of MSD-5a when co-administered” value ([3]; SB-258719 5 mg/Kg + MSD-5a 10 mg/kg s.c., nerve-injured mice) was “had a tendency to revert MSD-5a (10 mg/kg) without significancy” and the “effect on capsaicin-induced mechanical allodynia” value ([4]; 20 mg/kg s.c.) was “significantly increased paw withdrawal latencies”. For the same molecule, the “effect on capsaicin-induced mechanical allodynia” value ([4]; 2.5, 5 and 10 mg/kg s.c.) was “unaffected”, the “effect on the antiallodynic effect of AS-19 when co-administered” value ([4]; AS-19 at 5 and 10 mg/kg, WAY-100635 0.3 mg/kg or SB-258719 5 mg/kg s.c.) was “abolished” and the “effect on the antiallodynic effect of MSD-5a when co-administered” value ([4]; SB-258719 5 mg/kg + MSD-5a 10 mg/kg s.c.) was “blocked this antiallodynic effect”. For the same molecule, the “effect on the antiallodynic effect of AS-19 when co-administered” value ([4]; SB-258719 2.5 and 5 mg/kg + AS-19 5 mg/kg s.c.) was “dose-dependently inhibited” and the “effect on 5a-MSD-induced anti-hyperalgesia/anti-allodynia” value [5] was “Blockade”.
